Data as given in ChEMBL document CHEMBL1201862, “PubChem BioAssay data set” (2004).
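Results reflect a 48-hour exposure of cells in 96-well plates to compound at five concentrations. GI50 marks 50% less growth.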 Calls of active or inactive are those of the source. Rule as the data show it: active = GI50 up to about 1.1 µM and inactive = higher.

Assays:
Experiment in all cases: DTP human tumour cell line panel, 48 h
HCT-116 = system: HCT-116
U-251 = system: U-251
SK-MEL-2 = system: SK-MEL-2
SK-MEL-5 = system: SK-MEL-5
786-0 = system: 786-0
SW-620 = system: SW-620
MDA-MB-231 = system: MDA-MB-231
OVCAR-4 = system: OVCAR-4
NCI/ADR-RES = system: NCI/ADR-RES
BT-549 = system: BT-549
ACHN = system: ACHN
PC-3 = system: PC-3
HOP-92 = system: HOP-92
A498 = system: A498
SF-295 = system: SF-295
OVCAR-8 = system: OVCAR-8
COLO 205 = system: COLO 205
SN12C = system: SN12C
OVCAR-3 = system: OVCAR-3

Measured: GI50

Cc1nnc(N)nc1/C=C\c1ccc(Cl)cc1Cl
inactive: HCT-116 26.9 µM | U-251 34.8 µM | SK-MEL-2 17 µM | SK-MEL-5 30.9 µM | 786-0 40.7 µM | SW-620 22 µM | MDA-MB-231 87.5 µM | OVCAR-4 34.5 µM | NCI/ADR-RES > 100 µM | BT-549 72.3 µM | ACHN 36.4 µM | PC-3 16.9 µM | HOP-92 39.2 µM | A498 > 100 µM | SF-295 23.4 µM | OVCAR-8 27 µM | COLO 205 20.9 µM | SN12C 61.5 µM

CN(C)P(=O)(Oc1occc1C(O)Cc1ccccc1)N(C)C (stereo not drawn)
inactive: HCT-116 > 100 µM | U-251 > 100 µM | SK-MEL-2 > 100 µM | SK-MEL-5 > 100 µM | 786-0 > 100 µM | SW-620 > 100 µM | MDA-MB-231 > 100 µM | OVCAR-4 > 100 µM | NCI/ADR-RES > 100 µM | BT-549 > 100 µM | OVCAR-3 > 100 µM | ACHN > 100 µM | PC-3 > 100 µM | A498 > 100 µM | SF-295 > 100 µM | OVCAR-8 > 100 µM | COLO 205 > 100 µM | SN12C > 100 µM

C[C@]12[C@@H]3CC[C@H]1[C@@H](OC(=O)Nc1cc([N+](=O)[O-])cc([N+](=O)[O-])c1)C(=O)N2CC3
inactive: HCT-116 > 100 µM | U-251 > 100 µM | SK-MEL-2 > 100 µM | SK-MEL-5 > 100 µM | 786-0 > 100 µM | SW-620 > 100 µM | MDA-MB-231 > 100 µM | OVCAR-4 > 100 µM | NCI/ADR-RES > 100 µM | BT-549 > 100 µM | ACHN > 100 µM | PC-3 > 100 µM | HOP-92 > 100 µM | A498 > 100 µM | SF-295 > 100 µM | OVCAR-8 > 100 µM | COLO 205 > 100 µM | SN12C > 100 µM

N#C/C(N)=C(C#N)/N=C/NCCO
inactive: HCT-116 > 100 µM | U-251 > 100 µM | SK-MEL-2 > 100 µM | SK-MEL-5 > 100 µM | 786-0 > 100 µM | SW-620 > 100 µM | MDA-MB-231 > 100 µM | OVCAR-4 > 100 µM | NCI/ADR-RES > 100 µM | BT-549 > 100 µM | OVCAR-3 > 100 µM | ACHN > 100 µM | PC-3 > 100 µM | A498 > 100 µM | SF-295 > 100 µM | OVCAR-8 > 100 µM | COLO 205 > 100 µM | SN12C > 100 µM

O=S(=O)(CCn1c(Sc2ccccc2)c(Sc2ccccc2)c2ccccc21)c1ccccc1
inactive: HCT-116 > 100 µM | U-251 > 100 µM | SK-MEL-2 > 100 µM | SK-MEL-5 > 100 µM | 786-0 > 100 µM | SW-620 > 100 µM | MDA-MB-231 > 100 µM | OVCAR-4 > 100 µM | NCI/ADR-RES > 100 µM | BT-549 > 100 µM | OVCAR-3 > 100 µM | ACHN > 100 µM | PC-3 > 100 µM | A498 > 100 µM | SF-295 > 100 µM | OVCAR-8 > 100 µM | COLO 205 > 100 µM | SN12C > 100 µM

CC1(C)CCC[C@](C)([C@H]2CC[C@]3(C)[C@@H]2[C@H](O)C[C@@H]2[C@@]4(C)CC[C@H](O)C(C)(C)[C@@H]4[C@H](O)C[C@]23C)O1
inactive: HCT-116 15.9 µM | U-251 12.3 µM | SK-MEL-2 13 µM | SK-MEL-5 3.64 µM | 786-0 19 µM | SW-620 13.2 µM | MDA-MB-231 17.3 µM | OVCAR-4 10.6 µM | NCI/ADR-RES 15.2 µM | BT-549 13.8 µM | ACHN 12.1 µM | PC-3 10.9 µM | HOP-92 13.6 µM | A498 12.8 µM | SF-295 10.5 µM | OVCAR-8 16.9 µM | COLO 205 10 µM | SN12C 14.3 µM
